These results are taken from patent US5155041A, “Culture of Bacillus subtilis” (Korea Research Institute of Chemical Technology, priority 1990, dated 1992).

SMILES strings stand for the structures. In brackets after ≈: the same amount, converted by molar mass. Where two headings read alike, the source gives them in different places.

Data set [1] relates to Trichophyton mentagrophytes ATCC 9533. As to the kind of experiment: Minimum inhibitory concentration, agar dilution. The data set is classed as cell-based.
A further data set concerns Cercospora kikuchi. Put plainly: Minimum inhibitory concentration, agar dilution. Format: cell-based.
Another data set relates to Microsporum gypseum. Put plainly: Minimum inhibitory concentration, agar dilution. Format: cell-based.
The test system of another data set is Pyricularia oryzae. Put plainly: microbe, parasite or virus in culture. Format: cell-based.
In the next data set the test system is Rhizopus sp. Put plainly: Minimum inhibitory concentration, agar dilution. Format: cell-based. (In general: In agar dilution the substance is mixed into plates at graded concentrations.)
For data set [2], the system named is Microsporum canis ATCC 11622. As to the kind of experiment: Minimum inhibitory concentration, agar dilution. The data set is classed as cell-based.
The test system of another data set is Glomerella glycine. Put plainly: Minimum inhibitory concentration, agar dilution. The data set is classed as cell-based.
The test system of another data set is Rhizoctonia solani. As to the kind of experiment: Minimum inhibitory concentration, agar dilution. Format: cell-based.
Data set [3] concerns Cladosporium carrionii ATCC 1624. As to the kind of experiment: Minimum inhibitory concentration, agar dilution. The data set is classed as cell-based.
For the next data set, the system named is Fusarium roseum. Put plainly: microbe, parasite or virus in culture. The data set is classed as cell-based.
Data set [4] deals with Coccidioides immitis ATCC 34020. As to the kind of experiment: microbe, parasite or virus in culture. The data set is classed as cell-based.
A further data set relates to Phytophthora parasitica. As to the kind of experiment: Minimum inhibitory concentration, agar dilution. The data set is classed as cell-based.
In the next data set the test system is Trichophyton ruburum. Put plainly: Minimum inhibitory concentration, agar dilution. Format: cell-based.
Data set [5] relates to Epidermopyton floccosum ATCC 38486. As to the kind of experiment: Minimum inhibitory concentration, agar dilution. Format: cell-based.
The subject of the next data set is Phytophthora capsici. Put plainly: Minimum inhibitory concentration, agar dilution. Format: cell-based.
The subject of data set [6] is Sporothrix schenkii ATCC 10212. As to the kind of experiment: Minimum inhibitory concentration, agar dilution. Format: cell-based.
Data set [7] deals with Asperillus fumigatus ATCC 164264. Put plainly: Minimum inhibitory concentration, agar dilution. The data set is classed as cell-based.
Another data set deals with Fusarium oxysporum. As to the kind of experiment: Minimum inhibitory concentration, agar dilution.
The subject of a further data set is mice. Conditions: mouse, in vivo, ip; cited from earlier work.
The next data set concerns Botrytis cinerea. Put plainly: Minimum inhibitory concentration, agar dilution.
[8] abbreviates: ATCC9533, Trichophyton mentagrophytes ATCC 9533, read-out: MIC.
Where [9] appears, read: Cercospora kikuchi, read-out: MIC.
Setting [10] is: Glomerella glycine, read-out: MIC.
Setting [11] is: Rhizoctonia solani, read-out: MIC.
Setting [12] is: Cladophialophora carrionii, ATCC1624, Cladosporium carrionii ATCC 1624, read-out: MIC.
Setting [13] is: Phytophthora nicotianae, Phytophthora parasitica, read-out: MIC.
Setting [14] is: Trichophyton ruburum, read-out: MIC.
[15] abbreviates: Epidermopyton floccosum ATCC 38486, read-out: MIC.
Setting [16] is: Phytophthora capsici, read-out: MIC.
[17] abbreviates: ATCC10212, Sporothrix schenkii ATCC 10212, read-out: MIC.
Where [18] appears, read: Asperillus fumigatus ATCC 164264, read-out: MIC.
The mark [19] stands for this setting: Nannizzia gypsea, Microsporum gypseum, read-out: MIC.
[20] abbreviates: ATCC11622, Microsporum canis ATCC 11622, read-out: MIC.

On to `COC1=CC(=O)C[C@@H](C)[C@]12Oc1c(Cl)c(OC)cc(OC)c1C2=O` [griseofulvin], for which the MIC in data set [1] (setting [8]) was 3 µg/mL (≈ 8.5 µM); in the data set with Cercospora kikuchi (setting [9]) it was greater than 100 µg/mL; with Microsporum gypseum (Nannizzia gypsea) it was 3 µg/mL (≈ 8.5 µM); in the data set on Pyricularia oryzae, greater than 100 µg/mL; with Rhizopus sp. (Rhizopus sp., read-out: MIC) it was greater than 100 µg/mL; in [2] (Microsporum canis, ATCC11622) it was 6 µg/mL (≈ 17 µM). Moreover, the MIC was greater than 100 µg/mL in the data set on Glomerella glycine (setting [10]); 100 µg/mL (≈ 283 µM) in the data set with Rhizoctonia solani (setting [11]); greater than 100 µg/mL in data set [3] (setting [12]); greater than 100 µg/mL with Fusarium roseum (Fusarium sambucinum); greater than 100 µg/mL in data set [4] (ATCC34020); 25 µg/mL (≈ 70.9 µM) in the data set on Phytophthora parasitica (setting [13]). Further, the MIC was 1.5 µg/mL (≈ 4.25 µM) in the data set on Trichophyton ruburum (setting [14]); 1.5 µg/mL (≈ 4.25 µM) in data set [5] (setting [15]); 100 µg/mL (≈ 283 µM) with Phytophthora capsici (setting [16]); greater than 100 µg/mL in data set [6] (setting [17]); greater than 100 µg/mL in [7] (setting [18]).

For the compound `C[C@@H]1C[C@@H]([C@H](O)CC2CC(=O)NC(=O)C2)C(=O)[C@@H](C)C1` [cycloheximide], the MIC in data set [1] (Trichophyton mentagrophytes, ATCC9533, read-out: MIC) was greater than 100 µg/mL; in the data set with Cercospora kikuchi (Cercospora, read-out: MIC), 100 µg/mL (≈ 355 µM); with Microsporum gypseum (Nannizzia gypsea, read-out: MIC) it was greater than 100 µg/mL; in the data set with Pyricularia oryzae (read-out: MIC) it was 3 µg/mL (≈ 10.7 µM); in the data set on Rhizopus sp. (Rhizopus, read-out: MIC), greater than 100 µg/mL; in data set [2] (Microsporum canis, ATCC11622, read-out: MIC), greater than 100 µg/mL. Further, the MIC in the data set with Glomerella glycine (read-out: MIC) is 25 µg/mL (≈ 88.9 µM); in the data set on Rhizoctonia solani (setting [11]) it was 12 µg/mL (≈ 42.7 µM); in data set [3] (Cladophialophora carrionii, ATCC1624, read-out: MIC), greater than 100 µg/mL; in the data set with Fusarium roseum (Fusarium sambucinum) it was 25 µg/mL (≈ 88.9 µM); in [4] (ATCC34020, read-out: MIC), greater than 100 µg/mL; in the data set with Phytophthora parasitica (Phytophthora nicotianae, read-out: MIC), 1.5 µg/mL (≈ 5.33 µM). The MIC with Trichophyton ruburum (Trichophyton, read-out: MIC) was greater than 100 µg/mL; in data set [5] (read-out: MIC) it was greater than 100 µg/mL; with Phytophthora capsici (setting [16]) it was 0.8 µg/mL (≈ 2.84 µM); in [6] (Sporothrix, ATCC10212, read-out: MIC), greater than 100 µg/mL; in data set [7] (read-out: MIC), 50 µg/mL (≈ 178 µM).

Turning to `C[C@H]1O[C@H](O[C@H]2[C@H](O)[C@@H](O)[C@@H](O)[C@H](O)[C@@H]2O)[C@@H](N)C[C@@H]1NC(=N)C(=O)O` [kasugamycin], the MIC is greater than 100 µg/mL in data set [1] (setting [8]); greater than 100 µg/mL in the data set with Cercospora kikuchi (setting [9]); greater than 100 µg/mL in the data set with Microsporum gypseum (setting [19]); 25 µg/mL (≈ 65.9 µM) in the data set on Pyricularia oryzae; greater than 100 µg/mL with Rhizopus sp. (Rhizopus sp., read-out: MIC); greater than 100 µg/mL in data set [2] (setting [20]). Moreover, the MIC (in the data set on Glomerella glycine (setting [10]); in the data set on Rhizoctonia solani (setting [11]); in data set [3] (setting [12]); with Fusarium roseum (Fusarium sambucinum); in [4] (ATCC34020); in the data set on Phytophthora parasitica (setting [13])) was greater than 100 µg/mL throughout. Also, the MIC (in the data set on Trichophyton ruburum (setting [14]); in [5] (setting [15]); with Phytophthora capsici (setting [16]); in data set [6] (setting [17]); in [7] (setting [18])) was greater than 100 µg/mL each time.

With `NC(=O)OCC(O)C(O)C(N)C(=O)NC(C(=O)O)C1OC(n2cc(CO)c(=O)[nH]c2=O)C(O)C1O` (stereo not drawn) [polyoxin B], the MIC was greater than 100 µg/mL in [1] (setting [8]); greater than 100 µg/mL in the data set on Cercospora kikuchi (setting [9]); greater than 100 µg/mL in the data set with Microsporum gypseum (setting [19]); greater than 100 µg/mL against Pyricularia oryzae; greater than 100 µg/mL in the data set on Rhizopus sp. (Rhizopus sp., read-out: MIC); greater than 100 µg/mL in data set [2] (setting [20]). Moreover, the MIC (in the data set with Glomerella glycine (setting [10]); in the data set on Rhizoctonia solani (setting [11]); in [3] (setting [12]); in the data set with Fusarium roseum (Fusarium sambucinum); in data set [4] (ATCC34020); with Phytophthora parasitica (setting [13])) was greater than 100 µg/mL throughout. For the same compound, the MIC (in the data set on Trichophyton ruburum (setting [14]); in data set [5] (setting [15]); with Phytophthora capsici (setting [16]); in data set [6] (setting [17]); in data set [7] (setting [18])) was greater than 100 µg/mL each time.

On to `C[C@@H]1[C@H](O)[C@@H](C)/C=C/C=C/CC/C=C/C=C/C=C/C=C/C(O[C@H]2O[C@H](C)[C@@H](O)[C@H](N)[C@@H]2O)CC2O[C@](O)(CC(O)C(O)CCC(O)CC(O)CC(O)CC(=O)O[C@H]1C)CC(O)C2C(=O)O` (stereo partly drawn) [nystatin], for which the MIC turned out to be 3 µg/mL (≈ 3.24 µM) in [1]; 12 µg/mL (≈ 13 µM) with Fusarium oxysporum; 12 µg/mL (≈ 13 µM) against Cercospora kikuchi; 3 µg/mL (≈ 3.24 µM) against Microsporum gypseum; 0.8 µg/mL (≈ 0.864 µM) against Pyricularia oryzae; 100 µg/mL (≈ 108 µM) in the data set with Rhizopus sp.. Besides, the MIC came to 1.5 µg/mL (≈ 1.62 µM) in data set [2]; 6 µg/mL (≈ 6.48 µM) in the data set with Glomerella glycine; 1.5 µg/mL (≈ 1.62 µM) in the data set on Rhizoctonia solani; 50 µg/mL (≈ 54 µM) in data set [3]; 6 µg/mL (≈ 6.48 µM) in the data set with Fusarium roseum (Fusarium roseum); 6 µg/mL (≈ 6.48 µM) in data set [4] (ATCC34020). Further, the MIC in the data set on Botrytis cinerea is 1.5 µg/mL (≈ 1.62 µM); in the data set on Phytophthora parasitica, 100 µg/mL (≈ 108 µM); with Trichophyton ruburum it was 3 µg/mL (≈ 3.24 µM); in data set [5], 1.5 µg/mL (≈ 1.62 µM); with Phytophthora capsici it was 100 µg/mL (≈ 108 µM); in data set [6] it was 25 µg/mL (≈ 27 µM). Further, in data set [7], the MIC is 12 µg/mL (≈ 13 µM). Besides, the LD50 (commonly the dose expected to kill half of the subjects tested) in the data set on mice was ~ 200 mg/kg.

On to `C[C@@H]1[C@H](O)[C@@H](C)/C=C/C=C/C=C/C=C/C=C/C=C/C=C/[C@H](O[C@@H]2O[C@H](C)[C@@H](O)[C@H](N)[C@@H]2O)C[C@@H]2O[C@](O)(C[C@@H](O)C[C@@H](O)[C@H](O)CC[C@@H](O)C[C@@H](O)CC(=O)O[C@H]1C)C[C@H](O)[C@H]2C(=O)O` [amphotericin B], for which the MIC in data set [1] (Trichophyton mentagrophytes, ATCC9533) came to 0.8 µg/mL (≈ 0.866 µM); against Fusarium oxysporum (Fusarium oxysporum), 50 µg/mL (≈ 54.1 µM); against Cercospora kikuchi (Cercospora), 100 µg/mL (≈ 108 µM); with Microsporum gypseum (Nannizzia gypsea), 0.8 µg/mL (≈ 0.866 µM); against Pyricularia oryzae, 0.2 µg/mL (≈ 0.216 µM); in the data set with Rhizopus sp. (Rhizopus), 100 µg/mL (≈ 108 µM). For the same compound, the MIC in [2] (Microsporum canis, ATCC11622) was 1.5 µg/mL (≈ 1.62 µM); with Glomerella glycine, 25 µg/mL (≈ 27.1 µM); against Rhizoctonia solani (Rhizoctonia solani), 3 µg/mL (≈ 3.25 µM); in data set [3] (Cladophialophora carrionii, ATCC1624), 50 µg/mL (≈ 54.1 µM); in the data set on Fusarium roseum (Fusarium sambucinum), 6 µg/mL (≈ 6.49 µM); in data set [4] (ATCC34020), 0.4 µg/mL (≈ 0.433 µM). The MIC amounted to 3 µg/mL (≈ 3.25 µM) in the data set on Botrytis cinerea (Botrytis cinerea); 50 µg/mL (≈ 54.1 µM) in the data set on Phytophthora parasitica (Phytophthora nicotianae); 0.8 µg/mL (≈ 0.866 µM) with Trichophyton ruburum (Trichophyton); 0.4 µg/mL (≈ 0.433 µM) in [5]; 25 µg/mL (≈ 27.1 µM) against Phytophthora capsici (Phytophthora capsici); 50 µg/mL (≈ 54.1 µM) in [6] (Sporothrix, ATCC10212). In data set [7], this compound yielded an MIC of 1.5 µg/mL (≈ 1.62 µM). Further, the LD50 with mice is on record as 88 mg/kg.
